{ooo} = Boc-miniPEG-3 linker between TAMRA and the PNA; {TAMRA} = TAMRA dye conjugated to the PNA N-terminus; {Lys} = C-terminal lysine residue of the PNA
Assay: Negative-stain transmission electron microscopy (TEM) of lipid/PNA complexes
Type: physicochemical
Description: Transmission electron microscopy (TEM): Negatively-stained transmission electron microscopic (TEM) images were obtained using FEI Tecnai T12. The samples were prepared by spreading 5 μL 0.001 wt. % solution on a 400 mesh Formvar/carbon film copper grid (Electron Microscopy Sciences, PA, USA) and negative staining was applied with 10 mg/mL of Uranyl acetate (SPI Supplies, PA, USA). The grids were then dried at 25° C. The accelerating voltage of the TEM was set at 80 kV.

In the case of “5′ TAMRA-ooo-TCAGCCGCTGTCACACGCACAG-Lys-3′ (all peptide nucleic acid (PNA), 5' {TAMRA}-{ooo}, 3' {Lys}) [PNA-210]”, the “morphology (TEM)” value is reported as “uniform discoidal morphology”.
With “5′ TAMRA-ooo-ACCCCTATCACGATTAGCATTAA-Lys 3′ (all peptide nucleic acid (PNA), 5' {TAMRA}-{ooo}, 3' {Lys}) [PNA-155]” the “morphology (TEM)” value was “uniform discoidal morphology”.
